Reference: article PMC12592400, “A unique inhibitor conformation selectively targets the DNA polymerase PolC of Gram-positive priority pathogens” (Nature Communications, 2025)

Tests used:
[1] = tested on: Clostridioides difficile infection; set-up: method as in PMID 35862742, PMID 35134880; conditions: patients cured of CDI through treatment with IBZ; cited from earlier work
[2] = set-up: method as in PMID 35134880, PMID 32892222; conditions: cited from earlier work
[3] = cited from earlier work
E. faecium ATCC 700221 = experiment: Frequency of resistance (FOR) study; type: cell-based, Enterococcus faecium; conditions: for CFU total count (48h): replicates 1-2; for Number of reduced susceptible colonies: Suppl. Table 2
Experimental: Strains with reduced susceptibility to ACX compounds were generated by WuXi Apptec on behalf of Acurx Pharmaceuticals, Inc., using E. faecium ATCC 700221 as parental strain.
Agar MICs for the wild-type strain were determined on Blood agar (Huankai). Compounds and linezolid were dissolved in 100% DMSO and vancomycin in ultrapure water. Strains were inoculated onto agar plates, incubated at 37 °C for 20-24 h after which colonies were suspended in sterile 0.9% saline at different bacterial concentrations. 5 μL of bacterial suspensions was individually spotted on agar plates supplemented with compounds at different concentrations, resulting in final concentrations of 10^–1, 10^–2, 10^–3, 10^–4, 10^–5, 10^–6, and 10^–7 per spot. After incubation for 20-24 h, bacterial growth was assessed by visual inspection.
For frequency of resistance (FOR) studies, colonies from the agar plate were suspended into sterile 0.9% saline to get 10^8-10^9 CFU bacterial cells per mL. […] The suspensions were also serially diluted with 0.9% saline and spotted onto agar to determine the actual inoculum. All agar plates were incubated at 37 °C for 48 h. FOR was defined as colony number on each compound-containing plate per CFU number of actual inoculum. Resistant colonies were subcultured on the corresponding compound plates to confirm that colonies were resistant and stable.

SMILES: O=c1[nH]c(NCc2ccc(Cl)c(Cl)c2)nc2ncn(CCN3CCOCC3)c12 [IBZ, N^2-(3,4-dichlorobenzyl)-7-(2-[1-morpholinyl]ethyl)guanine]
- recurrence of CDI during the post-treatment study period [1]: no recurrence was observed
- solubility [2]: low
- absorption [3]: poorly absorbed
- faecal levels [3]: > 1000 μg/g stool

SMILES: CC(=O)NC[C@H]1CN(c2ccc(N3CCOCC3)c(F)c2)C(=O)O1 [LZD, linezolid]
- CFU total count (48h) (E. faecium ATCC 700221; 1x MIC (ACX-728 2, ACX-641 0.5, ACX-671 1, ACX-763 4, Linezolid 2 mg/L), inoculum 1.3E+07 CFU/plate): TMTC
- CFU total count (48h) (E. faecium ATCC 700221; 1x MIC (ACX-728 2, ACX-641 0.5, ACX-671 1, ACX-763 4, Linezolid 2 mg/L), inoculum 1.3E+08 CFU/plate): TMTC
- CFU total count (48h) (E. faecium ATCC 700221; 2x MIC (ACX-728 4, ACX-641 1, ACX-671 2, ACX-763 8, Linezolid 4 mg/L), inoculum 1.3E+07 CFU/plate): TMTC
- CFU total count (48h) (E. faecium ATCC 700221; 2x MIC (ACX-728 4, ACX-641 1, ACX-671 2, ACX-763 8, Linezolid 4 mg/L), inoculum 1.3E+08 CFU/plate): TMTC
- CFU total count (48h) (E. faecium ATCC 700221; 4x MIC (ACX-728 8, ACX-641 2, ACX-671 4, ACX-763 16, Linezolid 8 mg/L), inoculum 1.3E+07 CFU/plate): TMTC
- CFU total count (48h) (E. faecium ATCC 700221; 4x MIC (ACX-728 8, ACX-641 2, ACX-671 4, ACX-763 16, Linezolid 8 mg/L), inoculum 1.3E+08 CFU/plate): TMTC
- CFU total count (48h) (E. faecium ATCC 700221; 8x MIC (ACX-728 16, ACX-641 4, ACX-671 8, ACX-763 32, Linezolid 16 mg/L), inoculum 1.3E+07 CFU/plate): TMTC
- CFU total count (48h) (E. faecium ATCC 700221; 8x MIC (ACX-728 16, ACX-641 4, ACX-671 8, ACX-763 32, Linezolid 16 mg/L), inoculum 1.3E+08 CFU/plate): TMTC
- CFU total count (48h) (E. faecium ATCC 700221; 16x MIC (ACX-728 32, ACX-641 8, ACX-671 16, ACX-763 64, Linezolid 32 mg/L), inoculum 1.3E+07 CFU/plate): TMTC
- CFU total count (48h) (E. faecium ATCC 700221; 16x MIC (ACX-728 32, ACX-641 8, ACX-671 16, ACX-763 64, Linezolid 32 mg/L), inoculum 1.3E+08 CFU/plate): TMTC
- Number of reduced susceptible colonies (E. faecium ATCC 700221; Fold MIC 2, 1.3E+07 cells plated): TMTC
- Number of reduced susceptible colonies (E. faecium ATCC 700221; Fold MIC 2, 1.3E+08 cells plated): TMTC
- Number of reduced susceptible colonies (E. faecium ATCC 700221; Fold MIC 4, 1.3E+07 cells plated): TMTC
- Number of reduced susceptible colonies (E. faecium ATCC 700221; Fold MIC 4, 1.3E+08 cells plated): TMTC
- Number of reduced susceptible colonies (E. faecium ATCC 700221; Fold MIC 8, 1.3E+07 cells plated): TMTC
- Number of reduced susceptible colonies (E. faecium ATCC 700221; Fold MIC 8, 1.3E+08 cells plated): TMTC
- Number of reduced susceptible colonies (E. faecium ATCC 700221; Fold MIC 16, 1.3E+07 cells plated): TMTC
- Number of reduced susceptible colonies (E. faecium ATCC 700221; Fold MIC 16, 1.3E+08 cells plated): TMTC
